Data on 2 compounds can be found in US20060128660A1, “FK228 analogs and methods of making and using the same” (Wisconsin Alumni Research Foundation, priority 2004, published 2006).

Test [1] has as its system Trx. The settings on record: human primary breast and colon tumor tissues, Butler et al. 2002; cited from earlier work.
Test [2] concerns HDAC. Kind of test: Western blot analysis of histones (tetra-AcLys H4) isolated from treated Drosophila S2 cells. The format is cell-based. (In general: A western blot detects proteins with antibodies after separation by electrophoresis.)
Protocol: Drosophila S2 cells can be cultured in Schneider's medium and grown as previously described by Wade and co-workers for periods ranging from 12 h to 96 h (Ballestar et al., 2001, Eur. J. Biochem. 268: 5397-5406). Cells may then be lysed and nuclear extracts prepared according to Thompson and co-workers (Steffan, 2001, Nature 413: 739-743). Lysates are then be subjected to differing concentrations of HDAC inhibitors and/or reductants (Barlow et al., 2001, Exp. Cell Res. 265: 90-103).
H2B detection was used to ensure equivalent protein loading to each well. […] Cells in all reactions were incubated at ambient temperature in media that contained 20 μM of each respective synthetic agent. Incubations were conducted for either 48 or 72 hours prior to nuclei isolation and processing.
H2B detection was used to ensure equivalent protein loading to each well. […] Lane 1 is a dioxane solvent control and concentrations of “drug” in cell medium are indicated above each lane. All cells were treated for a period of 48 hours at ambient temperature prior to nuclei isolation and processing.
Briefly, 2×10^6 cells in 10 mL medium are brought to 2×10^−5 M in synthetic intermediate and then allowed to incubate at ambient temperature for specified times. […] Histone H2B was detected in each case in order to verify equal protein loadings for each lane.

In the case of `O=C(CCCCCCC(=O)Nc1ccccc1)NO` [SAHA], the “effect on Trx” value in test [1] is listed as “down regulates Trx”. Take `O=C(CCCCCS)NC(CO)CSCc1ccccc1` (stereo not drawn) [compound 33]: in test [2] (20 μM, 48 or 72 hours, ambient temperature (FIG. 3A)), the “acetylated H4 in histones isolated from treated cells (Western blot)” value is on record as “a significant amount of acetylated H4”. Also, the “cellular HDAC inhibition (Western blot data)” value in test [2] (at −20 μM concentration) is “potent cellular HDAC inhibitors”.
